From US20240208997A1, “CYCLIC BENZIMIDAZOLE DERIVATIVES AS CGAS INHIBITORS” (Boehringer Ingelheim International GmbH, priority 2022, published 2024) come the findings set out here.

Assay [1] relates to IFN induction in virus-stimulated THP1 cells. Nature of the assay: Human cGAS cell assay, virus-stimulated THP1-Dual cells (THP1(vir) IC50). To be noted: THP-1, 18 h, Table 1, baculovirus-stimulated THP1-Dual cells, Lucia luciferase, 18 h, read-out: THP(vir) IC50. It counts as cell-based. The text has this:
(§1) 6.2 Method: Human cGAS Cell Assay and cGAMP Stimulated Counter Cell Assay (THP1(vir) IC50 and THP1(cGAMP) IC50)
THP1-Dual™ cells (InvivoGen #thpd-nfis) expressing IRF dependent Lucia luciferase reporter were used as basis for both assays. For the detection of cellular cGAS activity cells were stimulated by a baculovirus (pFastbac-1, Invitrogen, no coding insert) infection that delivers the cGAS enzyme stimulating double-stranded DNA (measurement of THP1(vir) IC50).
(§2) Pathway activity was monitored by measuring the Lucia luciferase activity induced by either DNA stimulated cGAS enzyme activity (measurement of THP1(vir) IC50) or by cGAMP directly (measurement of THP1(cGAMP) IC50, counter assay).
(§3) Compounds were delivered in 10 mM DMSO solution, serially diluted and transferred to the 384 well assay plate (Greiner #781201) using an Echo acoustic dispenser. Typically, 8 concentrations were used with the highest concentration at 10 μM in the final assay volume followed by ^˜1:5 dilution steps. DMSO concentration was set to 1% in the final assay volume. The 384 well assay plate contained […] (column 1-22), and DMSO in column 23 and 24.
(§4) Cells, cultivated according to manufacturer conditions, were harvested by centrifugation at 300 g/10 min and were then resuspended and diluted to 1.66E5 cells/ml in fresh cell culture medium (RPMI 1640 (Gibco #A10491-01), 10% FCS (Gibco #10500), 1× GlutaMax (Gibco #35050-061), 1× Pen/Strep solution (Gibco #15140-122), 100 μg/ml Normocin (InvivoGen #ant-nr), 100 μg/ml Zeocin (InvivoGen #ant-zn), 10 μg/ml Blasticidin S (Life Technologies #A11139-03)). The baculovirus solution was then added 1:200 (have varied according to virus batch) to the cells (measurement of THP1(vir) IC50).
(§5) 30 μL of the cell/virus-mix were added to each well of the compound plate from column 1-23 via MultiDrop Combi dispenser (5000 cells/well). In column 24, 30 μl/5000 cells/well without virus were added as a low control.
(§6) The plates were then incubated for 18 h at 37° C. in a humidified incubator.
(§7) Following that, 15 μL of QuantiLuc detection reagent (InvivoGen #rep-qlcg5) were added to each well using a MultiDrop Combi. Measurement was done immediately after the addition using an EnVision reader (US-luminescence read-mode).
(§8) Data Evaluation and Calculation:
(§9) For data evaluation and calculation, the measurement of the low control was set as 0% control and the measurement of the high control was set as 100% control. The IC50 values were calculated using the standard 4 parameter logistic regression formula. Calculation: [y=(a−d)/(1+(x/c)^b)+d], a=low value, d=high value; x=conc M; c=IC50 M; b=slope

The test system of assay [2] is IFN induction in cGAMP-stimulated THP1 cells. Nature of the assay: cGAMP stimulated counter cell assay in THP1-Dual cells (THP1(cGAMP) IC50). It is filed as cell-based, human. To be noted: Table 1; for pIC50: Homo sapiens, THP-1, counter assay, 10 μM cGAMP stimulation, read-out: THP(cGAMP) IC50; for Ratio THP(cGAMP) IC50/THP(vir) IC50: selectivity for cGAS-inhibition.
Text: as §1
For the counter assay, cells were stimulated by cGAMP (SigmaAldrich #SML1232) to activate the identical pathway independent and directly downstream of cGAS (measurement of THP1(cGAMP) IC50).
as §2, §3, §4, §5, §6, §7, §8, §9

For assay [3], the system named is IFN induction in dsDNA-stimulated human whole blood. The experiment in a line: Human whole blood assay (hWB IC50), dsDNA stimulated, IFNα2α production. It counts as cell-based. The settings on record: Table 1. As for the experimental part: 6.3 Method: Human Whole Blood Assay (Human WB IC50)
For the detection of cellular cGAS activity human whole blood was stimulated by transfection with double stranded DNA. Pathway activity was monitored by measuring the IFNα2α production.
Compounds were delivered as 10 mM DMSO solution and serially diluted and transferred to the 96-well cell culture plate (Corning #3595), prefilled with 20 μl OptiMEM (Gibco, #11058-021) in each well, using an Echo acoustic dispenser. Typically, 8 concentrations were used with the highest concentration at 10 μM in the final assay volume followed by ^˜1:5 dilution steps. DMSO concentration was set to 0.1% in the final assay volume. The 96-well assay plate contained 10 test compounds, and DMSO in control wells.
Collection of human whole blood from 3 or more healthy donors (male or female, no medication for 7 days except contraceptive and thyroxine) as Na-Citrate blood (e.g. 3.8% in Monovettes from Sarstedt) was conducted in parallel. Whole blood was kept at room temperature for a maximum of 3 hours after collection until use in the assay. 160 μl of the whole blood samples was transferred to each well of the 96-well assay plates filled with compound/OptiMEM. All assay plates were prepared as duplicates with blood from different donors. Blood plates were kept at room temperature for 60 minutes and continuous shaking with 450 rpm, covered with the lid, but not sealed.
20 μl OptiMEM and 9.6:1 Fugene was added to all low control wells.
After covering assay plates with aera seals and the lid, blood plates were kept at room temperature for 30 minutes and continuous shaking with 450 rpm, followed by an overnight incubation of 22 h at 37° C. in the incubator, without shaking.
For the detection of IFNα-2α in human plasma, the biotinylated capture antibody (Antibody set IFNA2, Meso Scale Diagnostics #B21VH-3, including coating and capture antibody) was diluted 1:17.5 in Diluent 100 (Meso Scale Diagnostics #R50AA-4), according to the manufacturer's directions. U-Plex MSD GOLD 96-well Small Spot Strepavidin SECTOR Plates (Meso Scale Diagnostics #L45SA-5) were coated with 25 μl diluted capture antibody. Coated plates were incubated for 60 min at room temperature under continuous shaking at 700 rpm. MSD IFNα-2α plates were washed three times with 150 μl wash buffer (1× HBSS, 0.05% Tween).
After blocking the plates with 100 μl block solution/well (1× HBSS with 0.2% Tween, 2% BSA) for 60 min at room temperature and continuous shaking at 700 rpm, plates were emptied as dry as possible by dumping just before continuing with the human plasma.
Whole Blood assay plates were centrifuged at 1600 rpm for 10 minutes. 25 μl of supernatant was transferred with a pipetting robot from each whole blood plate to the corresponding IFNα-2α plate. Plates were sealed with microplate seals and kept at room temperature again under continuous shaking at 700 rpm for two hours.
Next MSD IFNα-2α plates were washed three times with 150 μl wash buffer (1× HBSS, 0.05% Tween), before adding 25 μl MSD SULFO-TAG IFNα-2α Antibody solution (1:100 diluted in Diluent 3 (Meso Scale Diagnostics #R50AP-2) to each well of the plates.
Afterwards plates were sealed with microplate seals and kept at room temperature again under continuous shaking at 700 rpm for two hours. Finally, MSD IFNα-2α plates were washed three times with 150 μl wash buffer (1× HBSS, 0.05% Tween). 150 μl 2× Read buffer was added to each well and plates were immediately measured with the MSD Sector S600 Reader using the vendor barcode.
as §8
For data evaluation and calculation, % control calculation of each well was based on the mean of high (DNA stimulated control) and mean of low (unstimulated control) controls by using the following formula:
[counts(sample)−counts(low))/(counts(high)−counts(low))]*100
The IC50-values were calculated using the standard 4 parameter logistic regression formula. […]

Molecules are shown by their SMILES. pIC50: −log10 of the molar value.

With `Cc1cccc2c1nc1n2[C@H]2CCN(C[C@@H]2C)C(=O)CCCCCC(F)(F)c2nc(c3oc4ccccc4c3n2)N2C[C@H](C[C@H]2C(=O)O)O1` [Example 1.28], the negative logarithm of the IC50 (pIC50) in assay [1] is 7.82; in assay [2], 5.40; in assay [3] it was 7.55. Moreover, the “Ratio THP(cGAMP) IC50/THP(vir) IC50” value in assay [2] is reported as 267.

In the case of `C[C@H]1CCCCC(=O)N2CCC(CC2)n2c(nc3ccccc32)O[C@H]2C[C@@H](C(=O)O)N(C2)c2nc1nc1c2oc2ccccc21` [Example 1.25], the negative-log IC50 (pIC50) in assay [1] is 8.10; in assay [2] it was less than 5.00; in assay [3], 7.39. Moreover, the “Ratio THP(cGAMP) IC50/THP(vir) IC50” value in assay [2] was more than 1251.

As to `C[C@H]1CN2CC[C@@H]1n1c(nc3ccccc31)O[C@H]1C[C@@H](C(=O)O)N(C1)c1nc(nc3c1oc1ccccc13)CCOCCOC2=O` (mixture of isomers) [Example 12.01], the pIC50 in assay [1] was 6.62; in assay [2] it was less than 5.00; in assay [3], 6.65. Moreover, in assay [2], the “Ratio THP(cGAMP) IC50/THP(vir) IC50” value is listed as more than 42.

With `O=C(O)[C@@H]1C[C@H]2CN1c1nc(nc3c1oc1ccccc13)COCCCCCC(=O)N1CCC(CC1)n1c(nc3cccc(F)c31)O2` [Example 5.01], the negative logarithm of the IC50 (pIC50) in assay [1] was 7.42; in assay [2] it was less than 5.00; in assay [3] it was 7.48. Moreover, the “Ratio THP(cGAMP) IC50/THP(vir) IC50” value in assay [2] is recorded as more than 260.

For the molecule `O=C(O)[C@@H]1C[C@H]2CN1c1nc(nc3c1oc1ccccc13)CCOCCCC(=O)N1CCC(CC1)n1c(nc3ccc(F)cc31)O2` [Example 1.04], the results for the pIC50 in assay [1], in assay [2] and in assay [3] were 7.36, less than 5.00 and 7.36, respectively. Also, the “Ratio THP(cGAMP) IC50/THP(vir) IC50” value in assay [2] was more than 229.

Regarding `C[C@@H]1CN2CC[C@H]1n1c(nc3cc(Cl)ccc31)O[C@H]1C[C@@H](C(=O)O)N(C1)c1nc(nc3c1oc1ccccc13)CCOCCCC2=O` [Example 1.01], the pIC50 was 7.41 in assay [1], less than 5.00 in assay [2] and 7.06 in assay [3]. Also, the “Ratio THP(cGAMP) IC50/THP(vir) IC50” value in assay [2] is more than 253.

Consider `C[C@H]1CN2CC[C@@H]1n1c(nc3ccccc31)O[C@H]1C[C@@H](C(=O)O)N(C1)c1nc(nc3c1oc1cc(Cl)ccc13)C(F)(F)CCCOCC2=O` [Example 1.22], for which the pIC50 is 8.82 in assay [1], less than 5.00 in assay [2] and 8.40 in assay [3]. The “Ratio THP(cGAMP) IC50/THP(vir) IC50” value in assay [2] is given as more than 6579.

For the molecule `C[C@H]1CN2CC[C@@H]1n1c(nc3ccccc31)O[C@H]1C[C@@H](C(=O)O)N(C1)c1nc(nc3c1oc1ccccc13)CCCCCC2=O` [Example 1.19], the pIC50 in assay [1] is 7.40; in assay [2], 4.96; in assay [3], 7.74. The “Ratio THP(cGAMP) IC50/THP(vir) IC50” value in assay [2] stood at 277.

`O=C(O)[C@@H]1C[C@H]2CN1c1nc(nc3c1oc1ccccc13)OCCCCOC(=O)N1CCC(CC1)n1c(nc3ccccc31)O2` [Example 11.01]: the pIC50 in assay [1] is 6.74; in assay [2], less than 6.00; in assay [3], 6.86. For the same molecule, the “Ratio THP(cGAMP) IC50/THP(vir) IC50” value in assay [2] was more than 56.

Turning to `C[C@H]1CN2CC[C@@H]1n1c(nc3cc(F)ccc31)O[C@H]1C[C@@H](C(=O)O)N(C1)c1nc(nc3c1oc1ccccc13)C(F)(F)CCCCC(F)(F)C2=O` [Example 1.18], the pIC50 in assay [1] is 7.43; in assay [2], 5.00; in assay [3] it was 8.00. Also, the “Ratio THP(cGAMP) IC50/THP(vir) IC50” value in assay [2] was 270.

For the molecule `C[C@H]1CN2CC[C@@H]1n1c(nc3ccccc31)O[C@H]1C[C@@H](C(=O)O)N(C1)c1nc(nc3c1oc1ccccc13)CCCCCN(C)C2=O` [Example 13.01], the figures for the pIC50 in assay [1], in assay [2] and in assay [3] were 6.30, 5.14 and 6.73, respectively. In addition, in assay [2], the “Ratio THP(cGAMP) IC50/THP(vir) IC50” value was 15.

`C[C@H]1CN2CC[C@@H]1n1c(nc3ccccc31)O[C@H]1C[C@@H](C(=O)O)N(C1)c1nc(nc3c1oc1ccccc13)CCOCCCC2=O` [Example 1.05]: the results for the negative-log IC50 (pIC50) in assay [1], in assay [2] and in assay [3] were 8.54, less than 5.00 and 8.30, respectively. Also, the “Ratio THP(cGAMP) IC50/THP(vir) IC50” value in assay [2] is recorded as more than 3448.

`C[C@H]1CN2CC[C@@H]1n1c(nc3ccccc31)O[C@H]1C[C@@H](C(=O)O)N(C1)c1nc(nc3c1oc1ccccc13)C(F)(F)COCCCCC2=O` [Example 3.01]: the pIC50 is 9.36 in assay [1], 4.85 in assay [2] and 9.00 in assay [3]. Also, in assay [2], the “Ratio THP(cGAMP) IC50/THP(vir) IC50” value was determined as 32066.

In the case of `C[C@H]1CN2CC[C@@H]1n1c(nc3cc(Cl)ccc31)O[C@H]1C[C@@H](C(=O)O)N(C1)c1nc(nc3c1oc1ccccc13)COCCOCC2=O` [Example 1.11], the pIC50 in assay [1] was 8.44; in assay [2] it was not above 5.00; in assay [3], 8.52. For the same molecule, the “Ratio THP(cGAMP) IC50/THP(vir) IC50” value in assay [2] was more than 2907.

`C[C@H]1CN2CC[C@@H]1n1c(nc3ccccc31)O[C@H]1C[C@@H](C(=O)O)N(C1)c1nc(nc3c1oc1ccccc13)CCCC(C)(C)CCC2=O` [Example 1.23]: the figures for the pIC50 in assay [1], in assay [2] and in assay [3] were 6.72, 5.02 and 6.84, respectively. Besides, in assay [2], the “Ratio THP(cGAMP) IC50/THP(vir) IC50” value is reported as 51.

On to `C[C@@H]1CC(=O)N2CCC(CC2)n2c(nc3ccccc32)O[C@H]2C[C@@H](C(=O)O)N(C2)c2nc(nc3c2oc2ccccc23)CCCO1` [Example 7.01], for which the pIC50 in assay [1] was 6.82; in assay [2], 5.46; in assay [3] it was 7.00. The “Ratio THP(cGAMP) IC50/THP(vir) IC50” value in assay [2] stood at 23.
